From paper PMC4907692, “Engineering vanilloid-sensitivity into the rat TRPV2 channel” (eLife, 2016)

How the values were obtained:
WT TRPV1 = target: T1, WT TRPV1 (Rattus norvegicus, UniProt O35433); assay: Two-electrode voltage-clamp in Xenopus oocytes, WT TRPV1; type: cell-based
T1 construct: expressed in transfected cells; host or cells: Xenopus oocytes (cRNA injection, pGEM-HE)
Text: (§1) To further investigate the putative vanilloid binding pocket in TRPV1, we inspected the cryo-EM structure of TRPV1, looking for residues that are located nearby to the putative RTx density (Figure 1B; regions/residues highlighted in yellow) and that differ between TRPV1 and TRPV2 channels (Figure 3—figure supplement 1; regions highlighted in magenta). […] To quantify the contribution of each of these residues to TRPV1 channel activation by RTx under our experimental conditions, we mutated each to the corresponding residue in TRPV2. We then expressed each construct in oocytes and used the two electrode voltage-clamp technique to study activation by RTx and by the non-specific TRPV channel activator 2-APB. We recorded time courses for channel activation by each agonist while stepping the membrane potential from −60 to +60 mV every 3 s from a holding potential of 0 mV using an external recording solution containing 100 mM KCl (internal K^+ concentration in a healthy oocyte is 100 mM) (Figure 3A, left). We also recorded current-voltage (I-V) relations by stepping over a wider range of voltages in the absence and presence of activators, or in the presence of ruthenium red (RR), a non-specific inhibitor of TRP channels (Figure 3A, right).
The WT rat TRPV1 and TRPV2 channels in the pcDNA3.1 vector were kindly provided by Dr. David Julius (UCSF) ([Caterina et al., 1997]; [Caterina et al., 1999]) and subcloned into the pGEM-HE vector ([Liman et al., 1992]). Mutations were introduced into rTRPV1 using a two-step PCR mutagenesis technique and the resulting constructs were verified by sequencing. All channel constructs were expressed in Xenopus oocytes and studied following 1–4 days incubation after cRNA injection (incubated at 17°C in 96 mM NaCl, 2 mM KCl, 5 mM HEPES, 1 mM MgCl2 and 1.8 mM CaCl2, 50 μg/ml gentamycin, pH 7.6 with NaOH) using the two-electrode voltage-clamp recording technique (OC-725C, Warner Instruments, Hamden, CT) with a 150 μl recording chamber. Data were filtered at 1–3 kHz and digitized at 20 kHz using pClamp software (Molecular Devices, Sunnyvale, CA). […]

[1] = target: T2, TRPV1 QM (S512F, M547L, T550L, E570Q) (Rattus norvegicus, UniProt O35433, E570Q/M547L/S512F/T550L); assay: Two-electrode voltage-clamp in Xenopus oocytes, TRPV1 QM; type: cell-based; conditions: 2 mM 2-APB
T2 construct: expressed in transfected cells; host or cells: Xenopus oocytes (cRNA injection)
Text: as §1, with “right). […]” for “right).”

WT TRPV2 = target: T3, WT TRPV2 (Rattus norvegicus, UniProt Q9WUD2); assay: Two-electrode voltage-clamp in Xenopus oocytes, WT TRPV2; type: cell-based; conditions: 4 mM 2-APB
T3 construct: expressed in transfected cells; host or cells: Xenopus oocytes (cRNA injection, pGEM-HE)
Text: as §1, with “right). […]” for “right).”

TRPV2 QM = target: T4, TRPV2 QM (Rattus norvegicus, UniProt Q9WUD2, F472S/L507M/L510T/Q530E); assay: Two-electrode voltage-clamp in Xenopus oocytes, TRPV2 QM; type: cell-based; conditions: 50 µM capsaicin
T4 construct: expressed in transfected cells; host or cells: Xenopus oocytes (cRNA injection)
T4 sequence (Q9WUD2 1-761 F472S/L507M/L510T/Q530E): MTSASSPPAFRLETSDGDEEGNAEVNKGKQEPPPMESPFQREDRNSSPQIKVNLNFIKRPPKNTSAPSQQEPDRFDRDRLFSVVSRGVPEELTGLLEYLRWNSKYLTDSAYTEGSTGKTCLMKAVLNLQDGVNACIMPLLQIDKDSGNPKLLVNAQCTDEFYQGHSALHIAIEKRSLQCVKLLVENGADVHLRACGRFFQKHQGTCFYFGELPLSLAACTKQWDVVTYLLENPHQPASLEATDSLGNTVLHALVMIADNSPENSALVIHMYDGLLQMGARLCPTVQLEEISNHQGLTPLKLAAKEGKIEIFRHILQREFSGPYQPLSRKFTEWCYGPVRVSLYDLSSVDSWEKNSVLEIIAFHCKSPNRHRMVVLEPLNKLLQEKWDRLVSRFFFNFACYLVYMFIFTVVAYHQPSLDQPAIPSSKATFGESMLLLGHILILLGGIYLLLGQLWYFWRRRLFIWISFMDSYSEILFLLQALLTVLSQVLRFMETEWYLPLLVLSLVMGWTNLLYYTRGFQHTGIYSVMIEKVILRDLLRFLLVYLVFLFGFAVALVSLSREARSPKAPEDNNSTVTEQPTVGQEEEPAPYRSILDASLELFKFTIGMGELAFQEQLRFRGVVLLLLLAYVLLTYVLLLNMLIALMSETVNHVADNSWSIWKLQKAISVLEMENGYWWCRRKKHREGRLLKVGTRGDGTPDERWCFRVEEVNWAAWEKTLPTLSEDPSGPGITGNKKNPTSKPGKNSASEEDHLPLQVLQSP
Text: as §1, with “right). […]” for “right).”

TRPV2 = system: TRPV2; set-up: method as in Caterina et al., 1999; conditions: ref Caterina et al., 1999; cited from earlier work
[2] = system: full-length 1D4-tagged TRPV1; assay: 3H-RTx binding to S. cerevisiae membranes containing 1D4-tagged TRPV1; set-up: species or system rat; conditions: membranes, RTx binding in the presence of DkTx vs control
Text: The polymodal activation of TRPV1 has been widely conceptualized using allosteric models wherein binding of activators (such as vanilloids, protons, DkTx or voltage) are allosterically coupled to opening of the pore ([Brauchi et al., 2004]; [Jara-Oseguera et al., 2016]; [Matta and Ahern, 2007]). The allosteric nature of these interactions has begun to be explored using electrophysiological measurements of channel function ([Jara-Oseguera et al., 2016]; [Yao et al., 2010]), but has thus far not been investigated biochemically. We therefore tested whether binding of DkTx can enhance the affinity of TRPV1 for RTx, which would be predicted by an allosteric model wherein the two activators promote opening by binding more tightly to the open state. For these experiments we used a 1D4-tagged TRPV1 construct where expression in S. cerevisiae was driven by a constitutive promoter and we performed binding assays on yeast membranes where the vanilloid would have free access to the channel protein (see Methods). Under these conditions, we measured a Kd for RTx binding to 1D4-tagged TRPV1 of 0.6 nM under control conditions, about ten fold higher affinity than what we measured in intact cells using GFP-tagged TRPV1. When we measured the concentration-dependence of RTx binding to 1D4-tagged TRPV1 in the presence of DkTx, we observed that the tarantula toxin enhanced the affinity for RTx by about 3-fold (Figure 2A). The effects of DkTx were concentration-dependent (Figure 2B) and were observed independent of whether the binding assay was performed at 37°C (our standard temperature) or at 30°C (Figure 2A).
The full-length TRPV1 and TRPV2 channels with 1D4 affinity tags (TETSQVAPA) on their C-termini were cloned into the YEpHIS vector and expressed in the BJ5457 strain of S. cerevisiae using the strong constitutively active PMA1 promoter, as previously described ([Moiseenkova-Bell et al., 2008]). After 48 hr of expression at 30°C in YPD media, cells were harvested by centrifugation and re-suspended in PBS buffer, supplemented with complete protease inhibitor cocktail (Roche, Indianapolis, IN) and 4-amidinophenylmethanesulfonyl fluoride hydrochloride (APMSF) (Sigma-Aldrich, St. Louis, MO). Cells were broken by passing through an Avestin homogenizer at the pressure of 35 kpsi, cell lysate was cleared by centrifugation at 8,000 g for 15 min and membranes were isolated by ultracentrifugation at 190,000 g for 1 hr. Membrane pellets were re-suspended in PBS buffer supplemented with protease inhibitors and 200 mM sucrose, flash-frozen in liquid nitrogen and stored at -70°C until RTx binding measurements.
S. cerevisiae cells overexpressing TRPV1 constructs to be used in ligand binding assays on intact cells (Figure 1E,F) were grown as for small scale expression trials. 24 hr after protein induction cells were spun down at 4000g, the supernatant was removed and the pellet resuspended in 1x PBS, normalizing OD600 to 75 for each sample, and aliquoted for storage at -80°C. ^3H-RTx binding assays on cells were performed at 37°C as previously described ([Feng et al., 2015]), but where non-specific binding of RTx was measured using cells expressing GFP alone. The binding of RTx to TRPV1 and TRPV2 in membranes (e.g. Figure 2A,B and 5C) was performed at 37°C unless otherwise stated using membranes prepared from large scale protein preparations of S. cerevisiae containing rat TRPV1 and TRPV2 with a 1D4 tag expressed using a constitutive promoter as in [Moiseenkova-Bell et al., 2008]. Data for binding of RTx to membranes was corrected for non-specific binding, determined using either excess non-radioactive ligand or heat inactivation of the protein, as previously described ([Feng et al., 2015]). The TRPV1-activating double-knot toxin (DkTx) was produced recombinantly, folded in vitro and purified as previously described ([Bae et al., 2012]). Yeast membranes were incubated with DkTx solution for 1 hr at 4°C with gentle agitation prior to undertaking RTx binding assays. […]

T1 sequence (O35433 whole entry): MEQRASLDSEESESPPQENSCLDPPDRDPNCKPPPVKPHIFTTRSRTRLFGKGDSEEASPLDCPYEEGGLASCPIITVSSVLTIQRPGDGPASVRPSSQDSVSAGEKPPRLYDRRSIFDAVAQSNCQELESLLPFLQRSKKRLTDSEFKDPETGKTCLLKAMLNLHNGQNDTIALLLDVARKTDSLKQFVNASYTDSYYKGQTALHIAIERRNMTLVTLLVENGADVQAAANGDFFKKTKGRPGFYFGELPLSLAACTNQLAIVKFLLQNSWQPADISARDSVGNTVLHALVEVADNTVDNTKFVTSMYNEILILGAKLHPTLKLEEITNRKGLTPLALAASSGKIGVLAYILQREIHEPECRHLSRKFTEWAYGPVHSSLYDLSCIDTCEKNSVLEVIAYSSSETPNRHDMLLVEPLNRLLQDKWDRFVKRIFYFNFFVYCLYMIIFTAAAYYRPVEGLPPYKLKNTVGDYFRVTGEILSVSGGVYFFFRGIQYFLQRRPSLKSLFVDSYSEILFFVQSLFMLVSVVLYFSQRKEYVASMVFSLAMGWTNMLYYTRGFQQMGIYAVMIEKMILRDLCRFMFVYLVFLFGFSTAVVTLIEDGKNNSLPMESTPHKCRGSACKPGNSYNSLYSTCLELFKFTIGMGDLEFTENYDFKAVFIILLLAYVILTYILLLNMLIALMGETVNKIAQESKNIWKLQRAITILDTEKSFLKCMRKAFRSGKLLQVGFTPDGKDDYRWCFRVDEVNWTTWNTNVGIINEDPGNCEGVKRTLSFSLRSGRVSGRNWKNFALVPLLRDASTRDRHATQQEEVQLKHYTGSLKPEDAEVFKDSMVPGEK
T2 sequence (O35433 whole entry S512F/M547L/T550L/E570Q): as the sequence (O35433 whole entry) above, with S512F, M547L, T550L, E570Q counted along it
T3 sequence (Q9WUD2 whole entry): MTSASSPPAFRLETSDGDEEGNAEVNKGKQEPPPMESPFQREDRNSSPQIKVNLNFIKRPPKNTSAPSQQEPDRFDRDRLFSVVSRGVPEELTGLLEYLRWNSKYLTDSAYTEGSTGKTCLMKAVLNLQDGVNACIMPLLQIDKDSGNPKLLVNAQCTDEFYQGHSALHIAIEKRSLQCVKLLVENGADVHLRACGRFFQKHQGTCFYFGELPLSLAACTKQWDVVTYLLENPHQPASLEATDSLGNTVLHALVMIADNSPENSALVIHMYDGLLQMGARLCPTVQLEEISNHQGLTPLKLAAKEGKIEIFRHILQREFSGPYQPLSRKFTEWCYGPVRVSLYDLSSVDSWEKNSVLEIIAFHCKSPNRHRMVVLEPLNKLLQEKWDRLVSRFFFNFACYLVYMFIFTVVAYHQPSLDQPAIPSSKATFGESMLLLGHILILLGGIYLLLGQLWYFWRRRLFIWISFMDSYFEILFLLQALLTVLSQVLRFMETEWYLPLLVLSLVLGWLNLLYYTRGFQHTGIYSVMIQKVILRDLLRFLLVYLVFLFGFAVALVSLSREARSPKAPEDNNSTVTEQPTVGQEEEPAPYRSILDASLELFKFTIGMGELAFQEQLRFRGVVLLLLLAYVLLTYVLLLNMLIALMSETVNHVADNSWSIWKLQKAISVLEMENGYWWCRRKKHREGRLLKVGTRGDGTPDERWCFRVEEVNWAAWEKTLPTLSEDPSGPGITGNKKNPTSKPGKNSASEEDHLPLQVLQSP

NCCOB(c1ccccc1)c1ccccc1 [2-APB, 2-aminoethoxydiphenyl borate]
channel activation by 2-APB (WT TRPV1; 2 mM 2-APB, +60 and -60 mV): reversible activation | channel activation by 2-APB [1]: retaining sensitivity | channel activation by 2-APB (WT TRPV2): could be activated

N.N.N.N.N.N.N.N.N.N.N.N.N.N.[Cl-].[Cl-].[Cl-].[Cl-].[Cl-].[Cl-].[O-2].[O-2].[Ru+3].[Ru+3].[Ru+4] [RR, ruthenium red]
inhibition of RTx-activated currents by RR (WT TRPV1; 50 µM RR after 100 nM RTx): blocked the RTx-activated currents

COc1cc(CNC(=O)CCCC/C=C/C(C)C)ccc1O [capsaicin]
channel activation by capsaicin (TRPV2 QM): remained insensitive | sensitivity to capsaicin (TRPV2): insensitive to capsaicin

B1: double-knot toxin (protein, UniProt P0CH43 1-79, looked up)
Tau-theraphotoxin-Hs1a: DCAKEGEVCSWGKKCCDLDNFYCPMEFIPHCKKYKPYVPVTTNCAKEGEVCGWGSKCCHGLDCPLAFIPYCEKYRGRND
enhancement of the affinity for RTx by DkTx [2]: about 3 fold
